Assay [1] concerns the target Cys242 in human PIK3CA (157-299) (Homo sapiens (Human), UniProt P42336). The assay can be described thus: Covalent modification assay using MALDI-TOF MS. Type of assay: biochemical. The note with it: 4 h reaction time point. In outline:
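PIK3CA (157-299), 3.33 or 1 μM in 20 mM HEPES, 150 mM NaCl, 2 mM MgCl2, pH 7.3, was incubated with compound at room temperature in the dark for 15 min, 30 min, 2 h or 4 h. Linear MALDI-TOF read-out; % modification = adduct peak height over summed heights of all protein species.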

The subject of assay [2] is pAKT in BT474 cells. The assay can be described thus: Cell-based pAKT HTRF assay in BT474 cells. The note with it: BT474 cells, 4 hr incubation, read-out: pAKT inhibition IC50 in BT474 cells. In short, it runs like this:
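BT474 cells in DMEM/10% FBS were treated the day after seeding with a 9-point, 3-fold compound series from 3 μM (0.25% DMSO) for 4 hr. Lysates were mixed with d2 and Eu cryptate anti-pAKT antibodies and incubated 4-24 h at room temperature. HTRF was read with excitation at 320 nm and emission at 615 nm.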
For orientation: TR-FRET usually uses a lanthanide donor and a delayed reading to cut background.

[3] abbreviates: 3.33 μM protein target, 1:7.5 protein to compound ratio (compounds 1-852).
Where [4] appears, read: 1 μM protein target, 1:5 protein to compound ratio (compounds 853-1279).
Setting [5] is: Homo sapiens, BT-474, Compounds 10-999.

pIC50: −log10 of the molar value. Read-outs that look alike come from different tables or passages of the source.

Chain of Cys242 in human PIK3CA (157-299) (P42336 157-299): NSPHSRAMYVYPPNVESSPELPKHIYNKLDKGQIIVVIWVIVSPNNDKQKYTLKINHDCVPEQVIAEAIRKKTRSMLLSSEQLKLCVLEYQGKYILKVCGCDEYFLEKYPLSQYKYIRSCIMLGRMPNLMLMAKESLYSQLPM

The term pIC50 denotes the negative decadic logarithm of the IC50, by convention in mol/L. On to `C=CC(=O)N1CCc2nc(-c3nc(N4CCCC(N(C)C)C4)c4ccsc4c3-c3ccc(F)cc3OCCOC)sc2C1` (centres unmarked) [Compound 159], for which the “% of modification” value in assay [1] (setting [3]) is recorded as “B (50%<percent of modification <75%)”. Moreover, in assay [2] (Compounds 10-999), the pIC50 is 6.00 to 7.00.
For `C=C(F)C(=O)N1CCn2nc(-c3nc(-c4ccc(=O)n(C)c4)c4ccsc4c3-c3ccc(F)cc3OC(C)C)cc2C1` [Compound 276] the same measures were “A (percent of modification of PIK3CA protein ≥75%)” and 6.00 to 7.00.
For `C=CC(=O)N1CCc2nc(-c3nc(-c4ccc5c(c4)CCNC5)c4ccsc4c3-c3ccc(F)cc3OCC3CC3)sc2C1` [Compound 161] the same measures were “A (percent of modification of PIK3CA protein ≥75%)” and above 7.00.
In the same order, the values of `C=CC(=O)N1CCn2nc(-c3nc(-c4cnn(C)c4)c4ccsc4c3-c3ccc(F)cc3OCC3CCNC(=O)C3)cc2C1` (centres unmarked) [Compound 212] are “A (percent of modification of PIK3CA protein ≥75%)” and above 7.00.
In the case of `C=CC(=O)N1CCn2nc(-c3nc(-c4ccnc(N(C)C)c4)c4ccsc4c3-c3c(F)cc(F)cc3OCCO)cc2C1C` (centres unmarked) [Compound 960], in assay [1] (setting [4]), the “% of modification” value was “A (percent of modification of PIK3CA protein ≥75%)”. Moreover, in assay [2] (Compounds 10-999), the pIC50 is above 7.00.
In the case of `C=CC(=O)N1CCn2nc(-c3nc(-c4ccc5c(C)n(C)nc5c4)c4ccsc4c3-c3c(F)cc(F)cc3OCCO)cc2C1C` (centres unmarked) [Compound 1076], in assay [1] (setting [4]), the “% of modification” value is listed as “A (percent of modification of PIK3CA protein ≥75%)”. In addition, the pIC50 in assay [2] (Compounds 1000-1279) was above 7.00.
Turning to `C=C(F)C(=O)N1CCn2nc(-c3nc(-c4ccc(=O)n(C)c4)c4ccsc4c3-c3ccc(F)cc3OCCOC)cc2C1` [Compound 278], the “% of modification” value in assay [1] (setting [3]) is recorded as “B (50%<percent of modification <75%)”. Moreover, in assay [2] (Compounds 10-999), the pIC50 was 6.00 to 7.00.
For `C=CC(=O)N1CC[C@H](n2cc(-c3nc(-c4ccc5c(c4)CNC5=O)c4ccsc4c3-c3c(F)cc(F)cc3OC(C)C)cn2)C1` [Compound 334, 5-[7-(2,4-difluoro-6-isopropoxy-phenyl)-6-[1-[(3S)-1-prop-2-enoylpyrrolidin-3-yl]pyrazol-4-yl]thieno[3,2-c]pyridin-4-yl]isoindolin-1-one], the “% of modification” value in assay [1] (setting [3]) is reported as “A (percent of modification of PIK3CA protein ≥75%)”. For the same compound, in assay [2] (setting [5]), the pIC50 was above 7.00.
As for `C=CC(=O)N1CCn2nc(-c3nc(N4CC5CCC(C4)N5C(C)=O)c4ccsc4c3-c3c(F)cc(F)cc3OCCOC)cc2C1C` (centres unmarked) [Compound 1064], in assay [1] (setting [4]), the “% of modification” value is listed as “C (25%≤percent of modification <50%)”. The pIC50 in assay [2] (Compounds 1000-1279) is 6.00 to 7.00.
Take `C=CC(=O)N1CCn2nc(-c3nc(-c4ccc5c(c4)CN(CC(F)F)CC5)c4ccsc4c3-c3c(F)cc(F)cc3OCCOC)cc2C1C` (centres unmarked) [Compound 1248]: the “% of modification” value in assay [1] (setting [4]) is given as “A (percent of modification of PIK3CA protein ≥75%)”. The pIC50 in assay [2] (Compounds 1000-1279) is 6.00 to 7.00.
As for `C=CC(=O)N1CCc2nc(-c3nc(-c4ccc5c(c4)CCN(C)C5)c4ccsc4c3-c3c(F)cc(F)cc3OCC)sc2C1` [Compound 438], the “% of modification” value in assay [1] (setting [3]) is on record as “A (percent of modification of PIK3CA protein ≥75%)”. Moreover, the pIC50 in assay [2] (Compounds 10-999) was 6.00 to 7.00.
In the case of `C=CC(=O)N1CCn2nc(-c3nc(-c4ccc5c(c4)CN(CC(F)(F)F)CC5)c4ccsc4c3-c3c(F)cc(F)cc3OCCO)cc2C1C` (centres unmarked) [Compound 1250], in assay [1] (setting [4]), the “% of modification” value is recorded as “A (percent of modification of PIK3CA protein ≥75%)”. Also, the pIC50 in assay [2] (Compounds 1000-1279) is above 7.00.
In the case of `C=CC(=O)N1CCn2nc(-c3nc(-c4cnc5c(cnn5C)c4)c4ccsc4c3-c3c(F)cc(F)cc3OC[C@@H](C)O)cc2[C@H]1C` [Compound 893], the “% of modification” value in assay [1] (setting [4]) was “A (percent of modification of PIK3CA protein ≥75%)”. Also, the pIC50 in assay [2] (Compounds 10-999) is above 7.00.
As for `C=CC(=O)N1Cc2cc(-c3nc(-c4ccc5c(c4)CCN(C)C5)c4ccsc4c3-c3c(F)cc(F)cc3OC(C)C)cnc2C[C@H]1C` [Compound 476, 1-((7R)-3-(7-(2,4-difluoro-6-isopropoxyphenyl)-4-(2-methyl-1,2,3,4-tetrahydroisoquinolin-6-yl)thieno[3,2-c]pyridin-6-yl)-7-methyl-7,8-dihydro-1,6-naphthyridin-6(5H)-yl)prop-2-en-1-one], the “% of modification” value in assay [1] (setting [3]) is reported as “A (percent of modification of PIK3CA protein ≥75%)”. Further, in assay [2] (setting [5]), the pIC50 was 6.00 to 7.00.
Regarding `C=CC(=O)N1Cc2cc(-c3nc(-c4cnn(C)c4)c4ccsc4c3-c3c(F)cc(F)cc3OCCO)nn2C[C@H]1C` [Compound 673], in assay [1] (setting [3]), the “% of modification” value is “D (percent of modification <25%)”. Besides, the pIC50 in assay [2] (Compounds 10-999) is 6.00 to 7.00.
Turning to `C=CC(=O)N1CCn2nc(-c3nc(-c4ccc5c(cnn5C)c4)c4ccsc4c3-c3c(F)cc(F)cc3OCCO)cc2[C@H]1C` [Compound 908, 1-((R)-2-((S)-7-(2,4-difluoro-6-(2-hydroxyethoxy)phenyl)-4-(1-methyl-1H-indazol-5-yl)thieno[3,2-c]pyridin-6-yl)-4-methyl-6,7-dihydropyrazolo[1,5-a]pyrazin-5(4H)-yl)prop-2-en-1-one], the “% of modification” value in assay [1] (setting [4]) was “A (percent of modification of PIK3CA protein ≥75%)”. For the same compound, in assay [2] (setting [5]), the pIC50 is above 7.00.
For `C=CC(=O)N1CCc2ncc(-c3nc(-c4ccn(C)c(=O)c4)c4ccsc4c3-c3c(F)cc(F)cc3OC(C)C)cc2C1` [Compound 336], the “% of modification” value in assay [1] (setting [3]) is “A (percent of modification of PIK3CA protein ≥75%)”. Further, in assay [2] (Compounds 10-999), the pIC50 was above 7.00.
For `C=CC(=O)N1CC[C@H](n2cc(-c3nc(-c4ccc5c(c4)CCN(C)C5)c4ccsc4c3-c3ccc(F)cc3OCCOC)cn2)C1` [Compound 67] the same measures were “A (percent of modification of PIK3CA protein ≥75%)” and above 7.00.
With `C=CC(=O)N1CCc2ccc(-c3nc(-c4ccc5c(c4)C(=O)NC5)c4ccsc4c3-c3c(F)cc(F)cc3OCCOC)cc2C1` [Compound 1107], the “% of modification” value in assay [1] (setting [4]) is on record as “A (percent of modification of PIK3CA protein ≥75%)”. In addition, the pIC50 in assay [2] (Compounds 1000-1279) is above 7.00.
In the case of `C=CC(=O)N1CCc2cc(-c3nc(-c4ccc5ncn(C)c5c4)c4ccsc4c3-c3c(F)cc(F)cc3OC(C)C)nn2CC1` [Compound 573], the “% of modification” value in assay [1] (setting [3]) is recorded as “A (percent of modification of PIK3CA protein ≥75%)”. The negative-log IC50 (pIC50) in assay [2] (Compounds 10-999) is above 7.00.
In the same order, the values of `C=CC(=O)N1CCn2nc(-c3nc(-c4cnn([C@@H](CO)CF)c4)c4ccsc4c3-c3ccc(F)cc3OCCOC)cc2C1` [Compound 280] are “A (percent of modification of PIK3CA protein ≥75%)” and above 7.00.
For `C=CC(=O)N1CCc2nc(-c3nc(-c4cnn(C)c4)c4ccsc4c3-c3c(F)cc(Cl)cc3OCCOC)sc2C1` [Compound 464] the same measures were “A (percent of modification of PIK3CA protein ≥75%)” and 6.00 to 7.00.
For `C=CC(=O)N1Cc2cc(-c3nc(-c4ccc5c(c4)CCN(C)C5)c4ccsc4c3-c3c(F)cc(F)cc3OCCO)nn2[C@@H](C)C1` [Compound 565] the same measures were “A (percent of modification of PIK3CA protein ≥75%)” and above 7.00.
On to `C=CC(=O)N1CCn2nc(-c3nc(-c4ccc(OCCN(C)C)nc4)c4ccsc4c3-c3c(F)cc(F)cc3OCCOC)cc2C1C` (centres unmarked) [Compound 1065], for which the “% of modification” value in assay [1] (setting [4]) is on record as “A (percent of modification of PIK3CA protein ≥75%)”. For the same compound, the pIC50 in assay [2] (Compounds 1000-1279) is above 7.00.
As for `C=CC(=O)N1Cc2cc(-c3nc(-c4cnn(C)c4)c4ccsc4c3-c3c(F)cc(F)cc3OCCO)nn2[C@@H](C)C1` [Compound 567], the “% of modification” value in assay [1] (setting [3]) is given as “A (percent of modification of PIK3CA protein ≥75%)”. In assay [2] (Compounds 10-999), the pIC50 was above 7.00.
For `C=CC(=O)N1CCn2nc(-c3nc(-c4ccc5c(c4)CCN(C)C5)c4ccsc4c3-c3c(F)cc(F)cc3OCC(C)O)cc2C1C` (centres unmarked) [Compound 550] the same measures were “A (percent of modification of PIK3CA protein ≥75%)” and above 7.00.
With `C=CC(=O)N1CC[C@@H](n2cc(-c3nc(-c4cncc(C#N)c4)c4ccsc4c3-c3c(F)cc(F)cc3OC(C)C)cn2)C1` [Compound 388], in assay [1] (setting [3]), the “% of modification” value is reported as “A (percent of modification of PIK3CA protein ≥75%)”. Moreover, the pIC50 in assay [2] (Compounds 10-999) is 6.00 to 7.00.
For `C=CC(=O)N1CCc2ncc(-c3nc(-c4cnn(C)c4)c4ccsc4c3-c3c(F)cc(F)cc3OC)cc2C1` [Compound 405] the same measures were “A (percent of modification of PIK3CA protein ≥75%)” and above 7.00.
For `C=CC(=O)N1CCn2nc(-c3nc(-c4ccc5c(c4)C(=O)N(C)C5)c4ccsc4c3-c3c(F)cc(F)cc3OCCOC)cc2[C@H]1C` [Compound 846] the same measures were “A (percent of modification of PIK3CA protein ≥75%)” and above 7.00.
With `C=CC(=O)N1CCn2nc(-c3nc(-c4ccc5c(cnn5C)c4F)c4ccsc4c3-c3c(F)cc(F)cc3OCCOC)cc2C1C` (centres unmarked) [Compound 1144], the “% of modification” value in assay [1] (setting [4]) is given as “A (percent of modification of PIK3CA protein ≥75%)”. Besides, in assay [2] (Compounds 1000-1279), the pIC50 is above 7.00.
As to `C=CC(=O)N1CCc2nc(-c3nc(N4CCN(S(C)(=O)=O)CC4)c4ccsc4c3-c3ccc(F)cc3OCCOC)sc2C1` [Compound 167], in assay [1] (setting [3]), the “% of modification” value is “B (50%<percent of modification <75%)”. For the same compound, the pIC50 in assay [2] (Compounds 10-999) was 6.00 to 7.00.

The record behind these values is patent publication US20250230138A1, “COMPOUNDS HAVING A T-STRUCTURE FORMED BY AT LEAST FOUR CYCLES FOR USE IN THE TREATMENT OF CANCER AND OTHER INDICATIONS” (TheRas, Inc., priority 2022, published 2025).
